Test results published in US20260207563A1, “UREA COMPOUNDS AS ACTIVATORS OF POTASSIUM CHANNELS KV7.2/7.3 USEFUL IN THE TREATMENT OF CNS AND PNS DISORDERS” (ANGELINI PHARMA S.P.A., priority 2022, published 2026).

Columns and labels:
Assay type in all cases: cell-based
[1] = biological target: T1, heteromeric KV7.2/KV7.3 channels (KCNQ2, KCNQ3) (Homo sapiens, UniProt O43525+O43526); experiment: Automated patch-clamp (Sophion Qube 384) potency assay against KV7.2/KV7.3 channels; details: CHO-K1/Kv7.2/Kv7.3 cells; for EC50: EC50 from concentration-response of shift in Vhalf, 10 concentrations up to 30 μM, read-out: Kv7.2/7.3 EC50; for Kv7.2/7.3 ΔV1/2: maximal shift in the Vhalf from the top of the curve
T1 construct: expressed in transfected cells; host or cells: CHO-K1
Summary of the method: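 Activator potency: EC50 from 4-parameter logistic fit of mean Vhalf shift across ten 1-in-3 dilutions starting at 30 μM (n=4), with DMSO (typically 0.3%) control. Currents recorded by leak-subtracted whole-cell clamp of stable CHO-K1 KV7.2/KV7.3 cells, held at −80 mV, stepped −100 to +20 mV then 0 mV tails.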

[2] = biological target: T2, homomeric KV7.4 channel (KCNQ4) (Homo sapiens, UniProt P56696); experiment: Automated patch-clamp (Qube) counter-screening assay against KV7.4 channel; details: CHO-K1 cells expressing KV7.4; class by maximal shift in the Vhalf at 30 μM
T2 construct: host or cells: CHO-K1
Summary of the method: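 EC50 and maximal shift in half-activation voltage come from 4-parameter logistic fits of mean Vhalf shifts. The series had ten 1-in-3 concentrations, highest 30 μM, each tested in quadruplicate. Recordings used automated Qube patch clamp on a stable CHO-K1 line expressing KCNQ4, and selectivity was judged from the 30 μM Vhalf shift.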

[3] = biological target: T3, heteromeric KV7.3/KV7.5 channel (KCNQ3, KCNQ5) (Homo sapiens, UniProt O43525+Q9NR82); experiment: Automated patch-clamp counter-screening against KV7.3/KV7.5 channel; details: HEK293 cells expressing Kv7.3/KV7.5; class by maximal shift in the Vhalf at 30 μM
T3 construct: host or cells: HEK293
Summary of the method: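 Potency came from a 4-parameter logistic fit of mean voltage-of-half-activation shifts, yielding EC50 and maximal shift; selectivity was judged on the shift at 30 μM. Compounds were applied at ten 3-fold dilutions from 30 μM in quadruplicate to HEK293 cells stably carrying Kv7.3 with tet-inducible Kv7.5.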

Compound	EC50 [1]	Kv7.2/7.3 ΔV1/2 [1]	Kv7.4 selectivity criteria [2]	Kv7.3/7.5 selectivity criteria [3]
CC(C)(C)[C@@H](O)CNC(=O)NCc1ccnc(OCCC(F)(F)F)c1 [Compound 78, (R)-1-(2-Hydroxy-3,3-dimethylbutyl)-3-((2-(3,3,3-trifluoropropoxy)pyridin-4-yl)methyl)urea]	11.7 µM	19.21 mV	A (Selective compounds showed Kv7.4 and/or Kv7.3/7.5 ΔV1/2 equal to or lower than 15 mV (letter A in table 3))	A (Selective compounds showed Kv7.4 and/or Kv7.3/7.5 ΔV1/2 equal to or lower than 15 mV (letter A in table 3))
O=C(NCc1ccnc(OCC(F)(F)F)c1)NCC1CCCC(F)(F)C1 (stereo not drawn) [Compound 79, 1-((3,3-Difluorocyclohexyl)methyl)-3-((2-(2,2,2-trifluoroethoxy)pyridin-4-yl)methyl) urea]	0.862 µM	26.55 mV	A (Selective compounds showed Kv7.4 and/or Kv7.3/7.5 ΔV1/2 equal to or lower than 15 mV (letter A in table 3))	A (Selective compounds showed Kv7.4 and/or Kv7.3/7.5 ΔV1/2 equal to or lower than 15 mV (letter A in table 3))
O=C(NCCC1(C(F)(F)F)CC1)NCc1ccc(OCC(F)(F)F)nc1 [Compound 80, 1-((6-(2,2,2-Trifluoroethoxy)pyridin-3-yl)methyl)-3-(2-(1-(trifluoromethyl)cyclopropyl)ethyl)urea]	3.9 µM	28.15 mV	B (Non-selective compounds showed Kv7.4 and/or Kv7.3/7.5 ΔV1/2 higher than 15 mV (letter B in table 3))	A (Selective compounds showed Kv7.4 and/or Kv7.3/7.5 ΔV1/2 equal to or lower than 15 mV (letter A in table 3))
O=C(NCCC1(C(F)(F)F)CC1)NCc1cc(OCC(F)(F)F)nc(C(F)(F)F)c1 [Compound 82, 1-((2-(2,2,2-Trifluoroethoxy)-6-(trifluoromethyl)pyridin-4-yl)methyl)-3-(2-(1-(trifluoromethyl)cyclopropyl)ethyl)urea]	2.15 µM	18.38 mV	B (Non-selective compounds showed Kv7.4 and/or Kv7.3/7.5 ΔV1/2 higher than 15 mV (letter B in table 3))	A (Selective compounds showed Kv7.4 and/or Kv7.3/7.5 ΔV1/2 equal to or lower than 15 mV (letter A in table 3))
O=C(NCc1ccnc(OCC(F)(F)F)c1)NCc1cc(F)ccc1Cl [Compound 85, 1-(2-Chloro-5-fluorobenzyl)-3-((2-(2,2,2-trifluoroethoxy)pyridin-4-yl)methyl)urea]	0.206 µM	20.49 mV	A (Selective compounds showed Kv7.4 and/or Kv7.3/7.5 ΔV1/2 equal to or lower than 15 mV (letter A in table 3))	A (Selective compounds showed Kv7.4 and/or Kv7.3/7.5 ΔV1/2 equal to or lower than 15 mV (letter A in table 3))
O=C(NCc1ccnc(OCC(F)(F)F)c1)N[C@@H]1CCc2ccc(F)cc21 [Compound 86, (R)-1-(6-fluoro-2,3-dihydro-1H-inden-1-yl)-3-((2-(2,2,2-trifluoroethoxy)pyridin-4-yl)methyl)urea]	1.35 µM	38.89 mV	A (Selective compounds showed Kv7.4 and/or Kv7.3/7.5 ΔV1/2 equal to or lower than 15 mV (letter A in table 3))	A (Selective compounds showed Kv7.4 and/or Kv7.3/7.5 ΔV1/2 equal to or lower than 15 mV (letter A in table 3))
O=C(NCCC1(C(F)(F)F)CC1)NCc1cc(OCC(F)(F)F)ncc1F [Compound 87, 1-((5-Fluoro-2-(2,2,2-trifluoroethoxy)pyridin-4-yl)methyl)-3-(2-(1-(trifluoromethyl)cyclopropyl)ethyl)urea]	1.85 µM	27.66 mV	A (Selective compounds showed Kv7.4 and/or Kv7.3/7.5 ΔV1/2 equal to or lower than 15 mV (letter A in table 3))	A (Selective compounds showed Kv7.4 and/or Kv7.3/7.5 ΔV1/2 equal to or lower than 15 mV (letter A in table 3))
O=C(NCc1ccnc(OCC(F)(F)F)c1)NCC1CCC(F)(F)C1 (stereo not drawn) [Compound 88, 1-((3,3-Difluorocyclopentyl)methyl)-3-((2-(2,2,2-trifluoroethoxy)pyridin-4-yl)methyl) urea]	0.96 µM	30.26 mV	A (Selective compounds showed Kv7.4 and/or Kv7.3/7.5 ΔV1/2 equal to or lower than 15 mV (letter A in table 3))	B (Non-selective compounds showed Kv7.4 and/or Kv7.3/7.5 ΔV1/2 higher than 15 mV (letter B in table 3))
O=C(NCc1ccnc(OCC(F)(F)F)c1)N[C@H]1CCc2ccc(F)cc21 [Compound 89]	2.18 µM	18.85 mV	B (Non-selective compounds showed Kv7.4 and/or Kv7.3/7.5 ΔV1/2 higher than 15 mV (letter B in table 3))	A (Selective compounds showed Kv7.4 and/or Kv7.3/7.5 ΔV1/2 equal to or lower than 15 mV (letter A in table 3))
O=C(NCCC1(C(F)(F)F)CC1)NCc1ccnc(OCC(F)(F)F)c1F [Compound 90]	0.237 µM	20.86 mV	A (Selective compounds showed Kv7.4 and/or Kv7.3/7.5 ΔV1/2 equal to or lower than 15 mV (letter A in table 3))	A (Selective compounds showed Kv7.4 and/or Kv7.3/7.5 ΔV1/2 equal to or lower than 15 mV (letter A in table 3))
C[C@@H](Oc1cc(CNC(=O)NCCC2(C(F)(F)F)CC2)ncn1)C(F)(F)F [Compound 91]	2.29 µM	37.24 mV	A (Selective compounds showed Kv7.4 and/or Kv7.3/7.5 ΔV1/2 equal to or lower than 15 mV (letter A in table 3))	B (Non-selective compounds showed Kv7.4 and/or Kv7.3/7.5 ΔV1/2 higher than 15 mV (letter B in table 3))
O=C(NCc1ccnc(C(F)(F)F)c1)N[C@@H]1CCc2ccc(F)cc21 [Compound 92]	3.95 µM	16.77 mV	A (Selective compounds showed Kv7.4 and/or Kv7.3/7.5 ΔV1/2 equal to or lower than 15 mV (letter A in table 3))	A (Selective compounds showed Kv7.4 and/or Kv7.3/7.5 ΔV1/2 equal to or lower than 15 mV (letter A in table 3))
C[C@@H](Oc1nccc(CNC(=O)NCCC2(C(F)(F)F)CC2)n1)C(F)(F)F [Compound 93]	4.46 µM	34.16 mV	B (Non-selective compounds showed Kv7.4 and/or Kv7.3/7.5 ΔV1/2 higher than 15 mV (letter B in table 3))	A (Selective compounds showed Kv7.4 and/or Kv7.3/7.5 ΔV1/2 equal to or lower than 15 mV (letter A in table 3))
O=C(NCc1ccnc(C(F)(F)F)c1)N[C@H]1CCc2ccc(F)cc21 [Compound 94]	4.17 µM	13.23 mV	A (Selective compounds showed Kv7.4 and/or Kv7.3/7.5 ΔV1/2 equal to or lower than 15 mV (letter A in table 3))	A (Selective compounds showed Kv7.4 and/or Kv7.3/7.5 ΔV1/2 equal to or lower than 15 mV (letter A in table 3))
O=C(NCCC1(C(F)(F)F)CC1)N1CCCC1c1ccnc(OCC(F)(F)F)c1 (stereo not drawn) [Compound 95]	2.29 µM	21.55 mV	A (Selective compounds showed Kv7.4 and/or Kv7.3/7.5 ΔV1/2 equal to or lower than 15 mV (letter A in table 3))	A (Selective compounds showed Kv7.4 and/or Kv7.3/7.5 ΔV1/2 equal to or lower than 15 mV (letter A in table 3))
